# Measurements: patent US10640457B2, “Histone acetyltransferase activators and uses thereof” (The Trustees of Columbia University in the City of New York, priority 2009, dated 2020)
# Entries after “also recorded” stand apart in the source; their conditions may differ.
# Assays:
# [1] = system: hippocampal slices from APP/PS1 mice; experiment: CA1 LTP in hippocampal slices of APP/PS1 and WT mice (TSA)
# Procedure: At this age the Tg mice just start showing the synaptic plasticity and memory impairments [A29] (herein incorporated by reference in its entirety). Basal synaptic transmission (BST) was similar between APP/PS1 and WT mice. We found no difference in BST among the 2 groups as previously shown in mice of this age [A29] (herein incorporated by reference in its entirety). Hippocampal slices were then perfused with TSA (1.65 μM) for 30 min before inducing LTP through tetanic stimulation of the Schaeffer collateral pathway. Potentiation in TSA treated APP/P S1 slices was far greater than in vehicle-treated APP/PS1 slices (FIG. 17). […] The observation that inspired these studies was the result of a series of experiments in which we tested whether a brief application of the HDAC inhibitor TSA was capable of rescuing the defect in LTP shown by slices from 3-4 month-old APP/PS1 mice (for a detailed description of the experiments showing the characterization of these mice [B50]; herein incorporated by reference in its entirety). At this age the transgenic mice just start showing the synaptic plasticity and memory impairments [B14, B50] (each herein incorporated by reference in its entirety)). […] (each herein incorporated by reference in its entirety), basal synaptic transmission (BST) was similar between APP/PS1 and WT mice. Hippocampal slices were then perfused with TSA (1.65 nM) for 30 min before inducing LTP through tetanic stimulation of the Schaeffer collateral pathway. Potentiation in TSA treated APP/PS1 slices was far greater than in vehicle-treated APP/PS1 slices (two-way ANOVA: F1,11=13.166, p=0.004; FIG. 17). […] Thus, HDAC inhibition is capable of rescuing the defect in LTP in the APP/PS1 animal model of Aβ deposition.
# APP/PS1 mice = experiment: Contextual and cued fear conditioning in APP/PS1 mice (TSA); format: in vivo
# Procedure: Following experiments on acute effect of TSA in synaptic dysfunction, we determined if TSA is beneficial against impairment of contextual FC in APP/PS1 mice[A17]. 4 month-old mice were divided into 4 groups: APP/PS1 with TSA, APP/PS1 with vehicle, WT with TSA and WT with vehicle. TSA and vehicle control solution were administered i.p. at a concentration of 2 μg/g body weight. We found a similar shock threshold among the various groups of mice. Then, mice were trained to associate neutral stimuli with an aversive one. They were placed in a novel context (FC box), exposed to a white noise cue paired with a mild foot shock, and injected with TSA 2 hrs before training Fear learning was assessed 24 hrs later by measuring freezing behavior—the absence of all movement except for that necessitated by breathing—in response to representation of the context. We found no difference in the freezing behavior among the 4 groups of mice during the training phase of the FC. 24 hrs later, freezing behavior was decreased in vehicle-treated APP/PS1 mice compared to vehicle-treated WT littermates in analyzing contextual learning (FIG. 18).
# HDAC inhibition rescues the defect in associative memory in APP/PS1 mice. Similar to humans affected by AD [B51] […] (herein incorporated by reference in its entirety). In rodents, associative learning can be assessed by contextual fear conditioning. This behavioral task, which is based on the association of a neutral stimulus with an aversive one, is dependent on hippocampal function [B52] (herein incorporated by reference in its entirety). Thus, following experiments on acute effect of TSA in synaptic dysfunction, we determined if TSA is beneficial against impairment of contextual fear conditioning in 3-4 month old APP/PS1 mice [B14] (herein incorporated by reference in its entirety). Animals were divided into 4 groups: APP/PS1 with TSA, APP/PS1 with vehicle, WT with TSA and WT with vehicle. TSA and vehicle control solution were administered i.p. at a concentration of 2 mg/Kg body weight. We found a similar shock threshold among the various groups of mice. Then, mice were trained to associate neutral stimuli with an aversive one. They were placed in a novel context (fear conditioning box), exposed to a white noise cue paired with a mild foot shock, and injected with TSA 2 hrs before training. Fear learning was assessed 24 hrs later by measuring freezing behavior—the absence of all movement except for that necessitated by breathing—in response to representation of the context. We found no difference in the freezing behavior among the 4 groups of mice during the training phase of the fear conditioning (F3,47=0.02997, p=0.9929, n=12-13/group; FIG. 18). Twenty-four hours later, we found a decreased freezing behavior in vehicle-treated APP/PS1 mice compared to vehicle-treated WT littermates in the analysis of the contextual learning (F3,47=[…], p=0.0280, n=12-13/group; FIG. 18).
# Freezing in vehicle-treated APP/PS1 mice was about 46% that of vehicle-treated WT mice [vehicle-treated APP/PS1 mice: 14.88±2.97% vs. vehicle-treated WT littermates: 31.68±5.32%; n=13 (11 females plus 2 males) and n=13 (11 females plus 2 males), respectively; t=2.76, p=0.0109; FIG. 18]. […] We next tested cued fear conditioning, a hippocampus-independent task [B46] […] (herein incorporated by reference in its entirety).
# [2] = system: histone acetylation (ACH3) in hippocampus, cortex, liver; experiment: Western blot of histone acetylation in mouse tissues after compound administration; format: in vivo, mice
# Excerpt: The mice liver and hippocampus were extracted 1 hr after treatment. […] In addition to the mouse liver and hippocampus, the mouse cortex was also extracted.
# The BBB was by-passed by giving it through cannulas implanted onto the dorsal hippocampus. Both the hippocampus and cortex were extracted at 2 hrs or 4 hrs after treatment.
# Two and four hrs after its administration, the mice were sacrificed and hippocampi were extracted. […] Purity was verified through Nuclear Magnetic Resonance (NMR). […] Hippocampus extraction was made at 3 different time points (0.5, 1 and 2 hrs post treatment). We then ran a western blotting for ACH3.
# The compound was i.p. administered at 20 mg/Kg, mice were sacrificed 30 min later, and hippocampi were removed and quickly frozen for WB analysis. […] (each herein incorporated by reference in its entirety). […]
SMILES,baseline transmission ([1]; APP/PS1 and WT slices that received no tetanus),"amplitude of LTP in WT slices ([1]; WT slices, TSA perfused 30 min)","potentiation (LTP) vs vehicle-treated APP/PS1 slices ([1]; slices of 3-4 month-old APP/PS1 mice, TSA perfused 30 min before tetanus)",contextual fear memory deficit in APP/PS1 mice (APP/PS1 mice; TSA i.p. 2 hrs before training),"freezing time relative to vehicle-treated APP/PS1 mice (APP/PS1 mice; TSA-treated APP/PS1 mice, 2 mg/Kg i.p.)","freezing, contextual fear conditioning 24 hrs after training (APP/PS1 mice; TSA-treated APP/PS1 mice, 2 mg/Kg i.p. 2 hrs before training)","freezing, contextual fear conditioning 24 hrs after training (APP/PS1 mice; TSA-treated WT mice, 2 mg/Kg i.p.)","cued fear conditioning, freezing among the 4 groups (APP/PS1 mice; pre-CS and CS)","acetylation of H3K4, H3K9, H3K14, H4K5, H4K8, H4K12, H4K16 and H2B in hippocampus ([2]; 20 mg/Kg i.p., sacrificed 30 min later)","ACH3 in hippocampus ([2]; 50 mg/kg i.p., 2 and 4 hrs after administration)","ACH3 levels in hippocampus ([2]; 5, 10, 20 mg/Kg i.p. in saline, 0.5, 1 and 2 hrs, except 1 hr-10 mg/kg)","histone acetylation levels following Aβ elevation ([2]; after foot shock, FIG. 80)","histone acetylation levels following Aβ elevation ([2]; basal conditions, FIG. 79)",crossing of the blood brain barrier (BBB) ([2]; concluded from brain histone acetylation after i.p. administration),"Aβ-induced decrease in H3 acetylation levels in hippocampus ([2]; i.p. 5 mg/kg, Aβ 200 nM infused onto dorsal hippocampi, 5 mg/kg)","histone 3 acetylation levels of the hippocampus ([2]; i.p., FIG. 1)"
"CC(/C=C/C(=O)NO)=C\[C@@H](C)C(=O)c1ccc(N(C)C)cc1 [TSA, trichostatin A]",did not affect,did not change; also recorded: no effect,far greater; also recorded: reverses,improved memory; also recorded: ameliorates,about 236.27%,35.15±6.99%,36.95±6.43%,did not find a difference,,,,,,,,
CCOc1cccc(OCCN(C)C)c1C(=O)Nc1ccc(Cl)c(C(F)(F)F)c1 [YF2],,,,,,,,,increased,increase,dramatically increased,restores,restores,able to cross the BBB; also recorded: crosses the BBB and the cell membrane,able to rescue; also recorded: rescued,increases
